In ChEMBL document CHEMBL5329205, “Development of novel quinoline-NO donor hybrids inducing human breast cancer cells apoptosis via inhibition of topoisomerase I” (Bioorg Med Chem, 2023):
Calls of active or inactive are those of the source. The calls are words filed in the database; no cut-off is given here.

What was measured:
[1] = tested on: MCF7; experiment: Induction of apoptosis in human MCF7 cells assessed as late apoptotic cells at 1.5 uM incubated for 48 hrs by Annexin-V/PI staining based flow cytometry analysis (reference value: 0.0%); format: functional
[2] = Toxicity in BALB/c mouse xenografted with human MCF7 cells assessed as kidney damage at 5 mg/kg, ip administered once every two days for 3 weeks by H and E staining based microscopic analysis; format: organism-based; details: in vivo, 504 h
[3] = tested on: MCF7; experiment: Induction of apoptosis in human MCF7 cells assessed as early apoptotic cells at 3 uM incubated for 48 hrs by Annexin-V/PI staining based flow cytometry analysis (reference value: 0.3%); format: functional
[4] = tested on: MCF7; experiment: Antitumor activity against human MCF7 cells xenografted in BALB/c nude mouse assessed as reduction in tumor weight at 10 mg/kg, ip administered once every two days for 3 weeks relative to control; format: functional; set-up: scale not given: the % may be the effect or the level left
[5] = tested on: MCF7; experiment: Antiproliferative activity against human MCF7 cells assessed as inhibition of cell growth incubated for 48 hrs by MTT assay; format: functional, cell-based; details: MCF7, 48 h
[6] = tested on: MCF7; experiment: Induction of cell cycle arrest in human MCF7 cells assessed as S phase cells at 3 uM incubated for 24 hrs by PI/RNaseA staining based flow cytometry analysis (reference value: 22.2 %); format: functional
[7] = tested on: MCF7; experiment: Antiproliferative activity against human MCF7 cells assessed as NO release at 4 uM preincubated with PTIO for 2 hrs followed by compound addition and measured after 24 hrs by total nitric oxide assay; format: functional, cell-based
[8] = tested on: MCF7; experiment: Induction of apoptosis in human MCF7 cells assessed as total apoptotic cells at 0.75 to 3 uM incubated for 48 hrs by Annexin-V/PI staining based flow cytometry analysis (reference value: 0.3 %); format: functional; details: dose 0.75-3 µM
[9] = tested on: MCF7; experiment: Induction of apoptosis in human MCF7 cells assessed as late apoptotic cells at 3 uM incubated for 48 hrs by Annexin-V/PI FITC staining based flow cytometry analysis (reference value: 0.0%); format: functional
[10] = tested on: MCF7; experiment: Induction of ROS generation in human MCF7 cells at 0.1 uM incubated for 24 hrs by DCFH-DA staining based fluorescent microscopic analysis; format: functional, cell-based
[11] = tested on: MCF7; experiment: Induction of apoptosis in human MCF7 cells assessed as viable cells at 1.5 uM incubated for 48 hrs by Annexin-V/PI staining based flow cytometry analysis (reference value: 99.7%); format: functional; details: read-out: Activity
[12] = tested on: MCF7; experiment: Induction of cell cycle arrest in human MCF7 cells assessed as G1 phase cells at 0.75 uM incubated for 24 hrs by PI/RNaseA staining based flow cytometry analysis (reference value: 66.08 %); format: functional
[13] = tested on: MCF7; experiment: Induction of apoptosis in human MCF7 cells assessed as viable cells at 0.75 uM incubated for 48 hrs by Annexin-V/PI staining based flow cytometry analysis (reference value: 99.7%); format: functional; details: read-out: Activity
[14] = tested on: MCF7; experiment: Induction of cell cycle arrest in human MCF7 cells assessed as S phase cells at 0.75 uM incubated for 24 hrs by PI/RNaseA staining based flow cytometry analysis (reference value: 22.2 %); format: functional
[15] = tested on: MCF7; experiment: Induction of apoptosis in human MCF7 cells assessed as necrotic cells at 3 uM incubated for 48 hrs by Annexin-V/PI staining based flow cytometry analysis (reference value: 0.0%); format: functional
[16] = tested on: MCF7; experiment: Induction of apoptosis in human MCF7 cells assessed as downregulation of Bcl-2 expression incubated for 24 hrs by Western blot analysis; format: functional, cell-based; details: dose 1-4 µM
[17] = tested on: MCF7; experiment: Induction of cell cycle arrest in human MCF7 cells assessed as G1 phase cells at 1.5 uM incubated for 24 hrs by PI/RNaseA staining based flow cytometry analysis (reference value: 66.08 %); format: functional
[18] = tested on: MCF7; experiment: Induction of apoptosis in human MCF7 cells assessed as upregulation of Bad expression incubated for 24 hrs by Western blot analysis; format: functional, cell-based; details: dose 1-4 µM
[19] = tested on: MCF7; experiment: Induction of apoptosis in human MCF7 cells assessed as bright blue appearance of cells upto 3 uM incubated for 48 hrs by Hoechst-33342 staining based fluorescent microscopic analysis; format: functional, cell-based
[20] = Toxicity in BALB/c mouse xenografted with human MCF7 cells assessed as spleen damage at 10 mg/kg, ip administered once every two days for 3 weeks by H and E staining based microscopic analysis; format: organism-based; details: in vivo, 504 h
[21] = tested on: MCF7; experiment: Induction of apoptosis in human MCF7 cells assessed as upregulation of Bax expression incubated for 24 hrs by Western blot analysis; format: functional, cell-based; details: dose 1-4 µM
[22] = tested on: MCF7; experiment: Induction of apoptosis in human MCF7 cells assessed as necrotic cells at 1.5 uM incubated for 48 hrs by Annexin-V/PI staining based flow cytometry analysis (reference value: 0.0%); format: functional
[23] = tested on: MCF7; experiment: Induction of apoptosis in human MCF7 cells assessed as late apoptotic cells at 0.75 uM incubated for 48 hrs by Annexin-V/PI staining based flow cytometry analysis (reference value: 0.0%); format: functional
[24] = tested on: MCF7; experiment: Induction of apoptosis in human MCF7 cells assessed as upregulation of cleaved-PARP expression incubated for 24 hrs by Western blot analysis; format: functional, cell-based; details: dose 1-4 µM
[25] = tested on: A549; experiment: Antiproliferative activity against human A549 cells assessed as inhibition of cell growth incubated for 48 hrs by MTT assay; format: functional, cell-based; details: A549, 48 h
[26] = tested on: MCF7; experiment: Induction of apoptosis in human MCF7 cells assessed as necrotic cells at 0.75 uM incubated for 48 hrs by Annexin-V/PI staining based flow cytometry analysis (reference value: 0.0%); format: functional
[27] = tested on: MCF7; experiment: Induction of apoptosis in human MCF7 cells assessed as early apoptotic cells at 0.75 uM incubated for 48 hrs by Annexin-V/PI staining based flow cytometry analysis (reference value: 0.3%); format: functional
[28] = Toxicity in BALB/c mouse xenografted with human MCF7 cells assessed as liver damage at 5 mg/kg, ip administered once every two days for 3 weeks by H and E staining based microscopic analysis; format: organism-based; details: in vivo, 504 h
[29] = tested on: MCF7; experiment: Induction of cell cycle arrest in human MCF7 cells assessed as G2 phase cells at 1.5 uM incubated for 24 hrs by PI/RNaseA staining based flow cytometry analysis (reference value: 7.67 %); format: functional
[30] = Toxicity in BALB/c mouse xenografted with human MCF7 cells assessed as liver damage at 10 mg/kg, ip administered once every two days for 3 weeks by H and E staining based microscopic analysis; format: organism-based; details: in vivo, 504 h
[31] = tested on: MCF7; experiment: Induction of cell cycle arrest in human MCF7 cells assessed as S phase cells at 1.5 uM incubated for 24 hrs by PI/RNaseA staining based flow cytometry analysis (reference value: 22.2 %); format: functional
[32] = tested on: MCF7; experiment: Induction of cell cycle arrest in human MCF7 cells assessed as G2 phase cells at 0.75 uM incubated for 24 hrs by PI/RNaseA staining based flow cytometry analysis (reference value: 7.67 %); format: functional
[33] = tested on: NCI/ADR-RES; experiment: Antiproliferative activity against human MCF7ADR cells assessed as inhibition of cell growth measured after 48 hrs by MTT assay; format: functional, cell-based
[34] = Toxicity in BALB/c mouse xenografted with human MCF7 cells assessed as kidney damage at 10 mg/kg, ip administered once every two days for 3 weeks by H and E staining based microscopic analysis; format: organism-based; details: in vivo, 504 h
[35] = tested on: MCF7; experiment: Induction of apoptosis in human MCF7 cells assessed as boundary consolidation upto 3 uM incubated for 48 hrs by Hoechst-33342 staining based fluorescent microscopic analysis; format: functional, cell-based
[36] = Toxicity in BALB/c mouse xenografted with human MCF7 cells assessed as heart damage at 10 mg/kg, ip administered once every two days for 3 weeks by H and E staining based microscopic analysis; format: organism-based; details: in vivo, 504 h

- IC50 [5]: 1450 nM
- IC50 [25]: 2130 nM
Compound: COc1cc(-c2cc(C(=O)OCCCCCOc3no[n+]([O-])c3S(=O)(=O)c3ccccc3)c3ccccc3n2)cc(OC)c1OC
- Activity [1]: 18.1%
- Activity [2]: Non-Toxic
- Activity [3]: 14.3%
- Activity [4]: 66.79%
- Activity [6]: 17.82%
- Activity [7]: inactive
- Activity [8]: 64.3%
- Activity [9]: 50%
- Activity [10]: Active
- viability at 1.5 µM [11]: 65.4%
- Activity [12]: 65.47%
- viability at 0.75 µM [13]: 67.1%
- Activity [14]: 22.08%
- Activity [15]: 1.2%
- Activity [16]: Dose-Dependent Effect
- Activity [17]: 61.5%
- Activity [18]: Dose-Dependent Effect
- Activity [19]: Active
- Activity [20]: Non-Toxic
- Activity [21]: Dose-Dependent Effect
- Activity [22]: 3.3%
- Activity [23]: 18%
- Activity [24]: Dose-Dependent Effect
- Activity [26]: 3%
- Activity [27]: 11.9%
- Activity [28]: Non-Toxic
- Activity [29]: 19.12%
- Activity [30]: Non-Toxic
- Activity [31]: 20.71%
- Activity [32]: 10.62%
- IC50 [33]: 620 nM
- Activity [34]: Non-Toxic
- Activity [35]: Active
- Activity [36]: Non-Toxic
